Experimental data reported in patent US20260308149A1, “NOVEL CARBOXAMIDE DERIVATIVES” (ANGELINI PHARMA S.P.A., priority 2023, published 2026).

biological target: T1, human Kv7.2 (Homo sapiens, UniProt O43526); assay: activation (potentiation) of Kv7.2 current, SyncroPatch 384 electrophysiology in CHO cells stably expressing human Kv7.2; assay type: cell-based; conditions: human Kv7.2 in CHO cells; in presence of 5.6 μM zinc pyrithione; % activation relative to 30 μM ML-213
T1 construct: expressed in transfected cells
Experimental: The potency of Kv7 potentiators was determined using the SyncroPatch 384 (Nanion) high throughput electrophysiology platform.
CHO cells stably expressing either human Kv7.2, Kv7.4 or Kv7.5/7.3 under a constitutive CMV promoter were used for these studies. Cells were maintained in F12 Hams+1 mM L-glutamine (Hyclone) supplemented with 10% FBS (Sigma), 0.3×NEAA (Non-essential Gamino-acids) and 400 ug/ml G418 at 37° C. in 5% CO2. Cells were cultured in T-225 flasks (Nunc) for 2-3 days to reach 85-95% confluence prior to electrophysiological recording.
Earle's balanced salt solution (in mM): 135 NaCl, 5.4 KCl, 5 Glucose, 2 CaCl2), 1 MgCl2, 5 HEPES, pH 7.4. Seal enhancer solution (in mM): 90 NaCl, 3 KCl, 35 CaCl2), 10 MgCl2, 10 HEPES, pH 7.4. Extracellular recording solution (in mM): 71 NaCl, 70 NMDG, 13 KCl. 5 Glucose, 2 CaCl2, 1 MgCl2, 10 HEPES, pH 7.4. Intracellular recording solution (in mM): 130 KF, 20 KCl, 4 EGTA, 10 HEPES, 2 EDTA, 0.01 Escin, pH 7.2.
Cells were harvested for electrophysiological recording upon reaching appropriate confluence. Cells were first washed in DPBS (Hyclone, Cat #SH30028.03) and then 2 ml of Accutase (MP Biomedicals #1000449) was added at 28° C. until ~90% of cells were suspended. F12 HAM's media+1 mM L-glutamine (Hyclone, SH30026.02) was then added to the flask to dilute the accutase. Cells were then triturated until a single cell suspension was achieved, a cell count was performed, and cells were centrifuged for 2 min. at 1,000 rpm. Media was then aspirated, and cells were resuspended in Earle's balanced salt solution to a concentration of 0.75×10^6 cells/ml and allowed to recover for 25 min at 10° C.
At the beginning of each assay, 20 μl of cell suspension was dispensed into each well of a multi-hole 384-well SyncroPatch chip by the onboard pipettor. Cell sealing was initiated, and seal enhancer solution was added to facilitate seal formation. Upon completion of sealing, cells were washed 3 times with extracellular recording solution and the assay voltage protocol was started. Human Kv7.2, Kv7.4 or Kv7.5/7.3 channels were evaluated using a voltage protocol in which cells were voltage-clamped at a holding potential of −60 mV. Potassium currents were continuously activated with a series of three voltage steps to −30 mV for 3 seconds, 40 mV for 1 second and −90 mV for 4 seconds with 12 seconds between successive voltage sweeps. Potassium currents were measured from the −90 mV repolarizing step. Baseline current was assessed for 3.5 minutes prior to the addition of 5.6 μM zinc pyrithione (1 μM for Kv7.4). Kv7.2, Kv7.4 or Kv7.5/7.3 current in the presence of zinc pyrithione was acquired over five minutes to allow channels to reach steady state activity prior to addition of test agents. Channel activity was monitored for three minutes preceding the addition of 30 μM ML-213 (3 minutes) to achieve maximum activation. 150 mM TEA with 10 μM XE-991 was applied for 2 minutes to measure the leak current during maximum inhibition of Kv7.2, Kv7.4 or Kv7.5/7.3 channels.
Data were collected on the SyncroPatch platform using PatchControl software (Nanion) and processed and analyzed using DataControl Software (Nanion). Percent activation was calculated from potassium current as follows: The average current for the 5 sweeps in the presence of zinc pyrithione immediately preceding test agent addition was taken as the ‘control’ data. Likewise, the average potassium current in the presence of test agents 5 sweeps immediately preceding addition of 30 μM ML-213 was determined for ‘drug’ data. The average potassium current 5 sweeps immediately prior to addition of 150 mM TEA+10 μM XE-991 was determined for ‘max activation’ data while average currents from 5 sweeps immediately following addition of TEA was determined for ‘max inhibition’ data. Percent activation for each of the 384-wells of a sealchip was calculated as ((‘drug’−‘max inhibition’)/(‘max activation’−‘max inhibition’))*100 with Pipeline Pilot (Accelrys). […]

T1 sequence (O43526 whole entry): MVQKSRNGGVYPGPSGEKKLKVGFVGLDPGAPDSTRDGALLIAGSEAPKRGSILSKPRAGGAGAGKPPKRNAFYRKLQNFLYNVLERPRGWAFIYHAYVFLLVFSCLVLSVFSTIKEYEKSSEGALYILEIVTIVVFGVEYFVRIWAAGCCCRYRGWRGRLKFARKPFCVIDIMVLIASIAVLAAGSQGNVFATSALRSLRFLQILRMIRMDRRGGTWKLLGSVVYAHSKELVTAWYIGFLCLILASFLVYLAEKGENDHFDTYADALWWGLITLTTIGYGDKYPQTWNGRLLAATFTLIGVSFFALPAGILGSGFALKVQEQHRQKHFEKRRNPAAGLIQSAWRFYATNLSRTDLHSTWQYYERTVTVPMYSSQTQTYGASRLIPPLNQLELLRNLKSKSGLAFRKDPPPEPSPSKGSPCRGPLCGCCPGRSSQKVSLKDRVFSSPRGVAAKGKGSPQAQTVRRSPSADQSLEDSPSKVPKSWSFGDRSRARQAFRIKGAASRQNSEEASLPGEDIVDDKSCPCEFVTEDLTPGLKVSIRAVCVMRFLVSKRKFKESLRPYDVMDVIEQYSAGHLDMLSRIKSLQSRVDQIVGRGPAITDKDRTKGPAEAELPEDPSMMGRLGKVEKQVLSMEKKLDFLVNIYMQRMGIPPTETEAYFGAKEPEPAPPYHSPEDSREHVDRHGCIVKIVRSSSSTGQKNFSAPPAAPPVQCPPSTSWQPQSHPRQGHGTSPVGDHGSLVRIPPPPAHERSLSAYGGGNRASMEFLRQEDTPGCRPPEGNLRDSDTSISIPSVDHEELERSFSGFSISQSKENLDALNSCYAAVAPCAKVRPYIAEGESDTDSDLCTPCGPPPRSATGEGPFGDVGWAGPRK

Row | EC50 [nM] | Compound
1 | 2410 | COC(C)(CNC(=O)Nc1cccc(C)c1)c1cccc(Cl)c1 (stereo not shown) [Example 6, 1-[2-(3-chlorophenyl)-2-methoxy-propyl]-3-(m-tolyl)urea]
2 | 660 | O=C(CC1CCCCC1)NCC1(c2cccc(OC(F)F)n2)CCO1 (stereo not shown) [Example 119, 2-cyclohexyl-N-[[2-[6-(difluoromethoxy)-2-pyridyl]oxetan-2-yl]methyl]acetamide]
3 | 2820 | O=C(NCC1(c2cccc(OC(F)F)n2)CCO1)C1CC12CCOCC2 (stereo not shown) [Example 115, N-[[2-[6-(difluoromethoxy)-2-pyridyl]oxetan-2-yl]methyl]-6-oxaspiro[2.5]octane-2-carboxamide]
4 | 170 | COC(C)(CNC(=O)[C@H]1C[C@@H]1c1ccccc1)c1cccc(Cl)c1 (mixture of isomers) [Example 1, rac-(1S,2S)-N-[2-(3-chlorophenyl)-2-methoxy-propyl]-2-phenyl-cyclopropanecarboxamide]
5 | 170 | O=C(NCC1(c2cccc(OC(F)F)n2)CCO1)C1CC12CCCCC2 (stereo not shown) [Example 123, N-[[2-[6-(difluoromethoxy)-2-pyridyl]oxetan-2-yl]methyl]spiro[2.5]octane-2-carboxamide]
6 | 1040 | N#Cc1cccc([C@]2(CNC(=O)[C@H]3C[C@@H]3C3CC(F)(F)C3)CCO2)c1 (mixture of isomers) [Example 127, (1SR,2RS)—N-[[(2S)-2-(3-cyanophenyl)oxetan-2-yl]methyl]-2-(3,3-difluorocyclobutyl)cyclopropanecarboxamide]
7 | 790 | N#Cc1cccc([C@@]2(CNC(=O)[C@H]3C[C@@H]3c3ccccc3)CCO2)c1 [Example 55, (1S,2S)-N-[[(2R)-2-(3-cyanophenyl)oxetan-2-yl]methyl]-2-phenyl-cyclopropanecarboxamide]
8 | 200 | O=C(NCC1(c2cccc(Cl)c2)COC1)[C@H]1C[C@@H]1c1ccccc1 [Example 68, (1S,2S)—N-[[3-(3-chlorophenyl)oxetan-3-yl]methyl]-2-phenyl-cyclopropanecarboxamide]
9 | 430 | O=C(CC1CCCCC1)NCC1(c2cccc(Cl)c2)CCO1 (stereo not shown) [Example 57, N-[[2-(3-chlorophenyl)oxetan-2-yl]methyl]-2-cyclohexyl-acetamide]
10 | 1140 | N#Cc1cccc([C@]2(CNC(=O)C3CC3n3cccc3)CCO2)c1 (stereo partly drawn) [Example 135, N-[[(2S)-2-(3-cyanophenyl)oxetan-2-yl]methyl]-2-pyrrol-1-yl-cyclopropanecarboxamide]
11 | 60 | CO[C@@](C)(CNC(=O)[C@H]1C[C@@H]1c1ccccc1)c1cccc(Cl)c1 [Example 2, (1S,2S)-N-[(2R)-2-(3-chlorophenyl)-2-methoxy-propyl]-2-phenyl-cyclopropanecarboxamide]
12 | 2870 | CO[C@@](C)(CNC(=O)NC1CCCC1)c1cccc(Cl)c1 [Example 16, 1-[(2R)-2-(3-chlorophenyl)-2-methoxy-propyl]-3-cyclopentyl-urea]
13 | 5430 | N#Cc1cccc([C@]2(CNC(=O)CC3CCCCC3)CCO2)c1 [Example 93, N-[[(2S)-2-(3-cyanophenyl)oxetan-2-yl]methyl]-2-cyclohexyl-acetamide]
14 | 3010 | N#Cc1cccc([C@]2(CNC(=O)C3CCC4(CCC4)C3)CCO2)c1 (stereo partly drawn) [Example 102, N-[[(2S)-2-(3-cyanophenyl)oxetan-2-yl]methyl]spiro[3.4]octane-7-carboxamide]
15 | 4330 | O=C(CC1CCCCC1)NCC1(c2ccnc(OC(F)F)c2)CCO1 (stereo not shown) [Example 117, 2-cyclohexyl-N-[[2-[2-(difluoromethoxy)-4-pyridyl]oxetan-2-yl]methyl]acetamide]
16 | 2010 | N#Cc1cccc([C@]2(CNC(=O)CC3(O)CC4CCC3C4)CCO2)c1 (stereo partly drawn) [Example 111, N-[[(2S)-2-(3-cyanophenyl)oxetan-2-yl]methyl]-2-(2-hydroxynorbornan-2-yl)acetamide]
17 | 870 | O=C(NCC1CCCC1)NCC1(c2cccc(Cl)c2)COC1 [Example 72, 1-[[3-(3-chlorophenyl)oxetan-3-yl]methyl]-3-(cyclopentylmethyl)urea]
18 | 3270 | COc1cccc(NC(=O)NCC2(c3cccc(C)c3)OCCO2)c1 [Example 27, 1-(3-methoxyphenyl)-3-[[2-(m-tolyl)-1,3-dioxolan-2-yl]methyl]urea]
19 | 50 | O=C(NC[C@@]1(c2cccc(Cl)c2)OCC1(F)F)[C@H]1C[C@@H]1c1ccccc1 (stereo in doubt) [Example 41, (1S,2S)-N-[[(2R)-2-(3-chlorophenyl)-3,3-difluoro-oxetan-2-yl]methyl]-2-phenyl-cyclopropanecarboxamide]
20 | 1990 | COC(CNC(=O)Nc1cccc(C)c1)c1cccc(Cl)c1 (stereo not shown) [Example 22, 1-[2-(3-chlorophenyl)-2-methoxy-ethyl]-3-(m-tolyl)urea]
21 | 5520 | O=C(NCC1(c2ccnc(OC(F)F)c2)CCO1)C1CC12CCC(F)(F)CC2 (stereo not shown) [Example 118, N-[[2-[2-(difluoromethoxy)-4-pyridyl]oxetan-2-yl]methyl]-6,6-difluoro-spiro[2.5]octane-2-carboxamide]
22 | 7600 | O=C(NCC1(c2cccc(Cl)c2)CCO1)C1CCCCC1 (stereo not shown) [Example 61]
23 | 1650 | COc1cccc(NC(=O)NCC2(c3cccc(Cl)c3)CCO2)c1 (stereo not shown) [Example 50, 1-[[2-(3-chlorophenyl)oxetan-2-yl]methyl]-3-(3-methoxyphenyl)urea]
24 | 410 | O=C(NCC1(c2ccnc(OC(F)F)c2)CCO1)[C@H]1C[C@@H]1c1ccccc1 (stereo partly drawn) [Example 67, (1S,2S)-N-[[2-[2-(difluoromethoxy)-4-pyridyl]oxetan-2-yl]methyl]-2-phenyl-cyclopropanecarboxamide]
25 | 810 | O=C(NCC1(c2cccc(Cl)c2)CCO1)Nc1cccc(Cl)c1 (stereo not shown) [Example 58]
26 | 2790 | N#Cc1cccc(C2(CNC(=O)CC3CCCCC3)COC2)c1 [Example 89, N-[[3-(3-cyanophenyl)oxetan-3-yl]methyl]-2-cyclohexyl-acetamide]
27 | 1860 | COC(C)(CNC(=O)NCc1cccs1)c1cccc(Cl)c1 (stereo not shown) [Example 33, 1-[2-(3-chlorophenyl)-2-methoxy-propyl]-3-(2-thienylmethyl)urea]
28 | 260 | N#Cc1cccc([C@]2(CNC(=O)[C@H]3C[C@@H]3C3CCC3)CCO2)c1 (mixture of isomers) [Example 101, (1SR,2RS)—N-[[(2S)-2-(3-cyanophenyl)oxetan-2-yl]methyl]-2-cyclobutyl-cyclopropanecarboxamide]
29 | 730 | O=C(NC[C@]1(c2cccc(Cl)c2)CCO1)[C@H]1C[C@@H]1c1ccccc1 [Example 39, (1S,2S)-N-[[(2R)-2-(3-chlorophenyl)oxetan-2-yl]methyl]-2-phenyl-cyclopropanecarboxamide]
30 | 490 | CC(C)(C)[C@@H]1C[C@H]1C(=O)NC[C@@]1(c2cccc(C#N)c2)CCO1 (mixture of isomers) [Example 110, (1RS,2RS)-2-tert-butyl-N-[[(2S)-2-(3-cyanophenyl)oxetan-2-yl]methyl]cyclopropanecarboxamide]

Row | Compound | EC50 [nM]
31 | CC(C)(C)O[C@H]1C[C@@H]1C(=O)NC[C@@]1(c2cccc(C#N)c2)CCO1 (mixture of isomers) [Example 114, (1SR,2SR)-2-tert-butoxy-N-[[(2S)-2-(3-cyanophenyl)oxetan-2-yl]methyl]cyclopropanecarboxamide] | 7520
